The record followed here is BindingDB's records for patent US8507533 (Pfizer, 2013).

Several values for one entry are separate records, joined by “and”; a condition that tells them apart may be missing. Equal entries are not always repeated.

This experiment addresses Glucagon receptor (Homo sapiens, UniProt P47871). Nature of the experiment: Glucagon SPA Assay. Particulars: pH 7.4. The source says:
The Glucagon SPA assay is used to determine the ability of test compounds to block the binding of glucagon-cex to the glucagon receptors.

Chain of Glucagon receptor (P47871 whole entry): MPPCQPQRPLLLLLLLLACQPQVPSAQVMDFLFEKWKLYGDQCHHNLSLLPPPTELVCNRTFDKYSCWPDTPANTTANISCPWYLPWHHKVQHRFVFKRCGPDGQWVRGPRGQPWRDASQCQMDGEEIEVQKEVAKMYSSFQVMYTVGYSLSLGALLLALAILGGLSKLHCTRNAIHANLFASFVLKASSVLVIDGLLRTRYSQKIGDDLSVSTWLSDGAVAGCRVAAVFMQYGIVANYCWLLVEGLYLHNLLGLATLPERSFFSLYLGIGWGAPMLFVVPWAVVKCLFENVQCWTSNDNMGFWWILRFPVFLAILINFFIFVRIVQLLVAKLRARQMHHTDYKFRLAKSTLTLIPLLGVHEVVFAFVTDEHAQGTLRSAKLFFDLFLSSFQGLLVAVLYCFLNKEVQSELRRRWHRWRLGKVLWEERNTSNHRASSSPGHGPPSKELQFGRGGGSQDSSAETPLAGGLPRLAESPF

Broadly, the Ki is a measure of affinity in units of concentration, obtained from inhibition or displacement. Higher therefore signals lower affinity. Turning to `Cc1cc(-n2cc(C(F)(F)F)cn2)ccc1C(Nc1ccc(C(=O)NCCC(=O)O)cn1)C1CCCCC1` (single isomer, unassigned) [US8507533, 337], the Ki is 183 nM and 297 nM.

On to `CCCC(Oc1ccc(-n2cc(-c3ccccc3)cn2)nc1)c1ccc(C(=O)NCCC(=O)O)cc1` (configuration not stated) [US8507533, 133], for which the inhibition constant Ki turned out to be 58 nM.
